Results taken from a melting point compilation (Tetko et al.; mined from patent text by program, amines drawn as free bases though some values may be those of a salt).

Row | Compound | melting point
1 | O=c1[nH]c(=O)n(COc2ccccc2)cc1F | 150 °C
2 | Cc1ccc2c(c1)c(=O)c(S(C)=O)cn2C (centres undefined) | 202 to 205 °C
3 | COc1ccc(C(C#N)N(C)C(=O)C(Cl)Cl)cc1OC (centres undefined) | 102 °C
4 | CCSc1c(CO)nc(C)n1Cc1ccc(-c2ccccc2C(=O)O)cc1 | 205 °C
5 | N#Cc1ccc(OCC(O)CCCl)cc1 (centres undefined) | 78 to 80 °C
6 | CC(C)n1nc(-c2c(-c3ccccc3)nn3ccc(N4CCCC4=O)cc23)ccc1=O | 266 to 267 °C
7 | CCOc1ccc(C2CCC3c4ccc(OCC)c(F)c4OC3C2)c(F)c1F (centres undefined) | 126 °C
8 | CCCCCc1cc2c(nc(O)n2CC2CCN(S(=O)(=O)CC)CC2)c(N)n1 | 222 to 225 °C
9 | CC(=O)Nc1c(C#N)cnn1-c1c(Cl)cc(Cl)c(Cl)c1Cl | 115 °C
10 | CC(=O)OC1c2ccc(Cl)cc2CC1S(C)(=O)=O (centres undefined) | 136 °C
11 | O=S(=O)(c1ccc(Oc2ccccc2)cc1)c1ccc(Oc2ccccc2)cc1 | 142 to 143 °C
12 | CCCCS(=O)(=O)NCc1ccc(CCN2CCN(c3ccncc3)CC2)cc1 | 154 to 156 °C
13 | Cc1c(F)cccc1N1CC(C(=O)O)CC1=O (centres undefined) | 155 to 160 °C
14 | CCCn1nc(SCCCCCC(=O)O)c(C(=O)O)c1Cc1cc2c(cc1Cl)OCO2 | 88 °C
15 | COC(=O)CC(=O)/C=C/c1c(-c2ccc(F)cc2OC)n(C(C)C)c(=O)c2ccccc12 | 164 to 166 °C
16 | CC(=O)SCC(Cc1ccc(-c2ccccc2)cc1)C(=O)N[C@@H](CSCc1ccc(C)cc1)C(=O)O (some centres undefined) | 131 to 135 °C
17 | O=C(Nc1ccc(C(=O)N2Cc3ccccc3Cc3ccccc32)cc1)c1cc(Cl)cc(Cl)c1 | 257 to 259 °C
18 | Nc1nc(CC(=O)Nc2cccc(C(F)(F)F)c2)cs1 | 116 to 118 °C
19 | O=S1(=O)OCCN1Cc1ccccc1Cl | 61 to 62.5 °C
20 | O[C@H](COc1cccc2[nH]ccc12)CN1CC=C(c2c[nH]c3cc(Cl)ccc23)CC1 | 200 to 202 °C

Row | Compound | melting point
21 | COC(=O)Cc1ccc(OCCNC(=O)[C@@H]2Cc3ccccc3N2S(=O)(=O)c2ccc(OC(C)(C)C)cc2)cc1 | 45 to 48 °C
22 | CC(C)c1cccc2c1C(=O)N(COC(=O)c1c(Cl)ccc(OCC(=O)O)c1Cl)S2(=O)=O | 210 to 212 °C
23 | O=S(c1ccc(C=Cc2nc(CCl)cs2)cc1)C(F)(F)F (centres undefined) | 98 to 99 °C
24 | CCOC(=O)C1(NC(=O)Nc2cccc(C)c2)N=C(c2ccc(Cl)cc2)c2ccccc2-n2c(C)nnc21 (centres undefined) | 168 to 172 °C
25 | CCN(C)C1=NS(=O)(=O)c2ccc(Cl)cc2N1 | > 220 °C
26 | CCc1nccn1-c1ccccc1C(=O)Nc1ccc(C(=O)N2CCC(F)(F)/C(=C\C(=O)NC3CC3)c3ccccc32)cc1 | > 260 °C
27 | Cc1cccc(NC(=O)c2cc(C#N)cc(C)n2)c1 | 160 °C
28 | NC[C@@H]1CC[C@H](C(=O)O)C1 (relative stereo) | 186 to 188 °C
29 | N#CC(OC1OC2C(Br)C3CC1C2C3)c1cccc(Oc2ccccc2)c1 (centres undefined) | 65 °C
30 | C=C(CS(=O)CCCC)c1ccccc1 (centres undefined) | 42 to 43.5 °C
31 | CCNC(=O)NCCCN1C(=Nc2ccc3c(c2)OCO3)CSC1c1ccccc1OC (centres undefined) | 134 to 136 °C
32 | COc1ccc(C[C@H](N[C@@H](Cc2ccccc2)C(=O)O)C(=O)NCCc2ocnc2C(=O)O)cc1 | 103 to 106 °C
33 | Cc1nc2c(Cl)cc(F)c([N+](=O)[O-])c2s1 | 130 to 132 °C
34 | Clc1ccc(C#Cc2ccc(-c3ccccc3)s2)cc1 | 141 to 145 °C
35 | COc1ccc(C(=O)O)c2ccc(C(F)(F)F)nc12 | 248 to 249 °C
36 | Cc1c(NC(=O)c2cc3c(s2)CCCC3)cccc1-c1cn(C)c(=O)c(Br)n1 | 240 to 241 °C
37 | CN1c2ccc(-c3ccccc3)cc2Sc2cc(-c3ccccc3)ccc21 | 239 to 241 °C
38 | COC(=O)C(=CNc1ccc(O)cc1C)C(=O)C=CC1=CCCC1 | 148 to 151 °C
39 | CCNS(=O)(=O)c1ccccc1C1CCCCC1 | 100 to 102 °C
